The results in this text go back to patent publication US6541480B2, “1-aryl-1,8-naphthylidin-4-one derivative as type IV phosphodiesterase inhibitor” (Suntory Limited, priority 1997, dated 2003).

pIC50: −log10 of the molar value.

Data set [1] has as its system type IV phosphodiesterase. In words: Type IV phosphodiesterase inhibiting activity (3H-cAMP hydrolysis, PDE IV fraction from U937 cells). In kind it is biochemical. The note with it: PDE IV fraction from human U937 cells, 30° C., 30 minutes.
Data set [2] has as its system TNF-α production by LPS stimulated mouse peritoneal macrophages. Description: TNF-α production inhibitory activity by LPS stimulated macrophages (ELISA). The data set is classed as cell-based. The settings on record: Peritoneal macrophage, LPS 10 μg/ml, 8 hours. For orientation: In an ELISA, binding on a coated surface is turned into a signal by an enzyme label.
Data set [3] can be described thus: 28-day repeated administration toxicity in mice. In kind it is in vivo. The settings on record: 10 mg/kg per day administered for 28 days to mice.

As a reminder, the pIC50 is the negative decadic logarithm of the IC50, by convention in mol/L. A higher pIC50 goes with a small IC50.

On to `O=C(Nc1ccncc1)c1cn(-c2ccncc2)c2ncccc2c1=O` [Example 139, 1,N-bis-(4-Pyridyl)-1,4-dihydro[1,8]naphthylidin-4-one-3-carboxamide], for which the figures for the negative logarithm of the IC50 (pIC50) in data set [1] and in data set [2] were 7.15 and 7.00, respectively. Moreover, the death entry in data set [3] is reported as “no death”.

On to `O=C(Nc1c(Cl)cncc1Cl)c1cn(-c2ccncc2)c2ncccc2c1=O` [Example 141, N-(3,5-Dichloropyridin-4-yl)-1-(4-pyridyl)-1,4-dihydro[1,8]naphthylidin-4-one-3-carboxamide], for which the pIC50 in data set [1] was 9.30; in data set [2], 9.00. The death entry in data set [3] is “no death”.
